Assay [1] deals with METTL1/WDR4 (Homo sapiens, UniProt Q9UBP6). Briefly: METTL1 Assay (METTL1 biochemical assay). The procedure:
Assays were performed in a 25 μl-volume in 384-well V-bottom polypropylene microplates (Greiner Bio-One, cat. No. 781280) at ambient temperature. Optimized 1× assay buffer was 20 mM HEPES pH 7.5, 50 mM KCl, 250 μM MgCl2, 1 mM DTT, 0.01% Tween, 0.01% BSG, 0.004 U/μl RNAseOUT (cat. No. 10777019, ThermoFisher Scientific, Waltham, Mass.). For compound screening METTL1/WDR4 (final concentration, f.c.=6.25 nM) was added using a Multidrop Combi (ThermoFisher Scientific, Waltham, Mass.) and preincubated for 5 min. Reactions were started by adding 3′ biotinylated RNA ([…]-biotin) (f.c.=25 nM) and 3H-SAM (f.c.=60 nM) substrates. Reactions proceeded for 20 minutes and were quenched with excess non-radioactive SAM (f.c.=15 μM). The reactions were then transferred to streptavidin-coated flashplates and incubated for 2 hours at 25° C. Following two washing cycles with 0.1% Tween-20, the plates were sealed and read on a TopCount (PerkinElmer, Waltham, Mass.) plate-based scintillation counter. For determination of kinetic parameters, reaction times were optimized so that measurements were taken during the initial velocity phase of the reaction.

Assay [2] concerns the target METTL3/METTL14 (Homo sapiens, UniProt Q86U44). Briefly: METTL3-14 Standard Enzyme Assay (METTL3 biochemical assay). The procedure: Assays were performed in a 25 μl-volume in 384-well V-bottom polypropylene microplates (Greiner Bio-One, cat. No. 781280) at ambient temperature. Optimized 1× assay buffer was 20 mM HEPES pH 7.5, 50 mM KCl, 250 μM MgCl2, 1 mM DTT, 0.01% Tween, 0.01% BSG, 0.004 U/μl RNAseOUT (cat. No. 10777019, ThermoFisher Scientific, Waltham, Mass.). For compound screening METTL3/METTL14 (final concentration, f.c.=2.5 nM) was added using a Multidrop Combi (ThermoFisher Scientific, Waltham, Mass.) and preincubated for 5 min. Reactions were started by adding 3′ biotinylated RNA ([…]-biotin) (f.c.=100 nM) and 3H-SAM (f.c.=100 nM) substrates. Reactions proceeded for 30 minutes and were quenched with excess non-radioactive SAM (f.c.=15 μM). The reactions were then transferred to streptavidin-coated flashplates and incubated for 2 hours at 25° C. Following two washing cycles with 0.1% Tween-20, the plates were sealed and read on a TopCount (PerkinElmer, Waltham, Mass.) plate-based scintillation counter. For determination of kinetic parameters, reaction times were optimized so that measurements were taken during the initial velocity phase of the reaction.

In assay [3] the target is PRMT5-MEP50 (Homo sapiens, UniProt O14744). Briefly: PRMT5 Assay (PRMT5 biochemical assay). The procedure:
Assays were performed in a 25 μl-volume in 384-well V-bottom polypropylene microplates (Greiner Bio-One, cat. No. 781280) at ambient temperature. Optimized 1× assay buffer was 20 mM Tris-HCl pH 8.0, 1 mM DTT, […]. For compound screening PRMT5-MEP50 (final concentration, f.c.=2.5 nM) was added using a Multidrop Combi (ThermoFisher Scientific, Waltham, Mass.) and preincubated for 5 min. Reactions were started by adding 3′ biotinylated histone H4 peptide acetylated on serine 1 (Ac-[…]-Biotin) (f.c.=100 nM) and 3H-SAM (f.c.=250 nM) substrates. Reactions proceeded for 60 minutes and were quenched with excess non-radioactive SAM (f.c.=15 μM). The reactions were then transferred to streptavidin-coated flashplates and incubated for 2 hours at 25° C. Following two washing cycles with 0.1% Tween-20, the plates were sealed and read on a TopCount (PerkinElmer, Waltham, Mass.) plate-based scintillation counter. For determination of kinetic parameters, reaction times were optimized so that measurements were taken during the initial velocity phase of the reaction.

The mark [4] stands for this setting: read-out: METTL1 IC50; METTL1 biochemical assay.
[5] abbreviates: METTL3 biochemical assay; read-out: METTL3 IC50.
Where [6] appears, read: PRMT5 biochemical assay; read-out: PRMT5 IC50.

Like-named read-outs stand apart in the source and are kept apart here.

Sequence of METTL1/WDR4 (Q9UBP6 whole entry, species assumed): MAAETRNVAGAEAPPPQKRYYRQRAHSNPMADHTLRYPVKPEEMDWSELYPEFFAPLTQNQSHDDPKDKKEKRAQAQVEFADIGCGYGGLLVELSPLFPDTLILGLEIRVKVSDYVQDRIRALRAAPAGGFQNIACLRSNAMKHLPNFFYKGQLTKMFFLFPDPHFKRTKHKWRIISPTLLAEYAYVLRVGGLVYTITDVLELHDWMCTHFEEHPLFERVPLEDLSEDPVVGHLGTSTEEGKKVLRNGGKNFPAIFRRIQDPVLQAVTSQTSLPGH
Sequence of METTL1/WDR4 (P57081 whole entry partner, species assumed): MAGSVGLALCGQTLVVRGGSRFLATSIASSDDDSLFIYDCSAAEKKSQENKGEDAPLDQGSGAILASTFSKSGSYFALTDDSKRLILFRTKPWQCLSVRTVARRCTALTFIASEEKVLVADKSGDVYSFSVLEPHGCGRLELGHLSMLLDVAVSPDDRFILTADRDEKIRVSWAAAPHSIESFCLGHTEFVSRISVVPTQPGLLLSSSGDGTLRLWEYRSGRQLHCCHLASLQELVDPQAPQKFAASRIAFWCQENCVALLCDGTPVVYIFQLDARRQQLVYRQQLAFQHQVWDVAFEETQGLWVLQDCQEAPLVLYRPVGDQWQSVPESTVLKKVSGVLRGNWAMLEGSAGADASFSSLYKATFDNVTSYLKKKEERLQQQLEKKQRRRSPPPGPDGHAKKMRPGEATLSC
Sequence of METTL3/METTL14 (Q86U44 whole entry, species assumed): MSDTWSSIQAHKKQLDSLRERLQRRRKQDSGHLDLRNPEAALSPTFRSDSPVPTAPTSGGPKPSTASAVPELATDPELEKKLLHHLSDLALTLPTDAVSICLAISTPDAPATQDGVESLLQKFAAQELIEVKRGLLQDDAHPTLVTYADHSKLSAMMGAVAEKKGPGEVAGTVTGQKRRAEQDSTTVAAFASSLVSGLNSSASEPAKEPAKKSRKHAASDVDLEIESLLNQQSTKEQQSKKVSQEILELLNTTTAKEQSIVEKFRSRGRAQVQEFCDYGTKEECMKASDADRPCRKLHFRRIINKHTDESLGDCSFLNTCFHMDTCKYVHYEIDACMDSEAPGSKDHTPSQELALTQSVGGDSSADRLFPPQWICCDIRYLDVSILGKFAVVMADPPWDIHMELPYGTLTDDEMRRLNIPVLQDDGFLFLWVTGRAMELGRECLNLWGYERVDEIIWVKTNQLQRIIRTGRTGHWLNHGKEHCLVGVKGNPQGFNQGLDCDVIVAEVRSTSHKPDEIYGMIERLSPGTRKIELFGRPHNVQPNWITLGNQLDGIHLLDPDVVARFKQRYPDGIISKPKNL
Sequence of METTL3/METTL14 (Q9HCE5 whole entry partner, species assumed): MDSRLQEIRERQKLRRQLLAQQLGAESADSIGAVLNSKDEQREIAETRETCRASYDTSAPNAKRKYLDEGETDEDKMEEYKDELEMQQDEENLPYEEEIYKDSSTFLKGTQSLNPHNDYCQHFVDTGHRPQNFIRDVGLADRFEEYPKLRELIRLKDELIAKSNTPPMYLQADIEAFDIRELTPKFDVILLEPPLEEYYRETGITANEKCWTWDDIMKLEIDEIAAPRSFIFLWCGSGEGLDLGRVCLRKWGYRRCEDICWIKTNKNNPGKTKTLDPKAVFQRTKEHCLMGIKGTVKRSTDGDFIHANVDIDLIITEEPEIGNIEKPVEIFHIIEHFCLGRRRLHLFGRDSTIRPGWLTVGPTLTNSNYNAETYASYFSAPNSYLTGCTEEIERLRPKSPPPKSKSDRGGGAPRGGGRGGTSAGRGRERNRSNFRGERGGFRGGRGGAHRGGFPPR
Sequence of PRMT5-MEP50 (O14744 whole entry): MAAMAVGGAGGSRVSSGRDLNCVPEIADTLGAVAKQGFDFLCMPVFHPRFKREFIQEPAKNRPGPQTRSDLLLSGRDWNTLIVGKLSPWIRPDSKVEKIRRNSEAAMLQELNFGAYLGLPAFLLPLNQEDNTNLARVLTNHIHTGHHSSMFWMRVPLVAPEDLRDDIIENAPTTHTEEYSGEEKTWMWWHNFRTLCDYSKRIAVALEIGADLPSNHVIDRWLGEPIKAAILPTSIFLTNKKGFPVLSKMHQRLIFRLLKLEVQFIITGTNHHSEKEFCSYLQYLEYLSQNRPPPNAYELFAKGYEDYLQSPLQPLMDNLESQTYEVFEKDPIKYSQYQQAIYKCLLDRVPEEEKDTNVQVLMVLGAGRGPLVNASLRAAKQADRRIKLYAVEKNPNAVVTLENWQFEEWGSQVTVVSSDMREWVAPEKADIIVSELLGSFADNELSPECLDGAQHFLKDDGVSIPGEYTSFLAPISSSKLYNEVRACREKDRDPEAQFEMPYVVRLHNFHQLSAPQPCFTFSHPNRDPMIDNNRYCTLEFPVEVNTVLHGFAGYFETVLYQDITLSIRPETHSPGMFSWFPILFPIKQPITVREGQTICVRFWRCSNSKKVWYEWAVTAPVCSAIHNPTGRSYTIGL
Sequence of PRMT5-MEP50 (Q9BQA1 whole entry partner): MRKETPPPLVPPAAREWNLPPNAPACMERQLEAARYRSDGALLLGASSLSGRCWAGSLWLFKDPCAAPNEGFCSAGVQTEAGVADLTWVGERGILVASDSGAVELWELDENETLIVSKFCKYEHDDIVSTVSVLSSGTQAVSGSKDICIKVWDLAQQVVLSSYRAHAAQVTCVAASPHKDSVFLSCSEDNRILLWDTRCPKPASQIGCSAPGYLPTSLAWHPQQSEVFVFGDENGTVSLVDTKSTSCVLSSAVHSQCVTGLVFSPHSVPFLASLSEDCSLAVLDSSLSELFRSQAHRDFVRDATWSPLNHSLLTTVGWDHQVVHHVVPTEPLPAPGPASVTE

For orientation: IC50 means the concentration that inhibits the measured activity by half. Regarding `CNc1ncnc2c1ccn2[C@@H]1C[C@H](CCc2ccc3ccc(N)nc3c2)[C@@H](O)[C@H]1O` [I-129], the IC50 is over 1000 nM in assay [1] (setting [4]), over 1000 nM in assay [2] (setting [5]) and under 10 nM in assay [3] (setting [6]).

Take `CCCNc1ncnc2c1ccn2[C@@H]1C[C@H](CCc2ccc3ccc(N)nc3c2)[C@@H](O)[C@H]1O` [I-102]: the values for the IC50 in assay [1] (setting [4]), in assay [2] (setting [5]) and in assay [3] (setting [6]) were over 1000 nM, over 1000 nM and under 10 nM, respectively.

For the molecule `Nc1ccc2ccc(CC[C@H]3C[C@@H](n4ccc5c(N)ncnc54)[C@H](O)[C@@H]3O)cc2n1` [I-138], the figures for the IC50 in assay [1] (setting [4]), in assay [2] (setting [5]) and in assay [3] (setting [6]) were over 1000 nM, 100 to 1000 nM and under 10 nM, respectively.

As to `Cc1cc2c(N)ncnc2n1[C@@H]1C[C@H](COc2ccc3ccc(N)nc3c2)[C@@H](O)[C@H]1O` [I-56], the figures for the IC50 in assay [1] (setting [4]), in assay [2] (setting [5]) and in assay [3] (setting [6]) were over 1000 nM, over 1000 nM and under 10 nM, respectively.

For `CN(C[C@H]1C[C@@H](n2ccc3c(N)ncnc32)[C@H](O)[C@@H]1O)c1ccc2ccc(N)nc2c1` [I-94], the figures for the half-maximal inhibitory concentration (IC50) in assay [1] (setting [4]), in assay [2] (setting [5]) and in assay [3] (setting [6]) were over 1000 nM, over 1000 nM and under 10 nM, respectively.

In the case of `Cn1cc(-c2cn([C@@H]3C[C@H](CCc4ccc5ccc(N)nc5c4)[C@@H](O)[C@H]3O)c3ncnc(N)c23)cn1` [I-63], the IC50 in assay [1] (METTL1 biochemical assay; read-out: METTL1 IC50) was over 1000 nM; in assay [2] (read-out: METTL3 IC50; METTL3 biochemical assay) it was 100 to 1000 nM; in assay [3] (read-out: PRMT5 IC50; PRMT5 biochemical assay) it was under 10 nM.

As for `Nc1ncnc2c1ccn2[C@@H]1C[C@H](CCc2ccc3[nH]cnc3c2)[C@@H](O)[C@H]1O` [I-88], the IC50 was over 1000 nM in assay [1] (setting [4]), over 1000 nM in assay [2] (setting [5]) and under 10 nM in assay [3] (setting [6]).

Regarding `Nc1ncnc2c1ccn2[C@@H]1C[C@H](CCc2cccnc2)[C@@H](O)[C@H]1O` [I-117], the IC50 in assay [1] (setting [4]) is over 1000 nM; in assay [2] (setting [5]), over 1000 nM; in assay [3] (setting [6]) it was 10 to 100 nM.

In the case of `CNc1ccc2ccc(OC[C@H]3O[C@@H](n4cnc5c(N)ncnc54)[C@H](O)[C@@H]3O)cc2n1` [I-76], the IC50 was over 1000 nM in assay [1] (setting [4]), 10 to 100 nM in assay [2] (setting [5]) and under 10 nM in assay [3] (setting [6]).

For the molecule `Nc1ncnc2c1ccn2[C@@H]1C[C@H](CCc2ccc3c(OCc4ccccc4)ccnc3c2)[C@@H](O)[C@H]1O` [I-86], the IC50 was over 1000 nM in assay [1] (setting [4]), over 1000 nM in assay [2] (setting [5]) and under 10 nM in assay [3] (setting [6]).

As to `Nc1ccc2ccc(OC[C@H]3C[C@@H](n4ccc5c(N)ncnc54)[C@H](O)[C@@H]3O)cc2n1` [I-124], the IC50 in assay [1] (setting [4]) is over 1000 nM; in assay [2] (setting [5]) it was 100 to 1000 nM; in assay [3] (setting [6]), under 10 nM.

Take `Nc1ncnc2c1ccn2[C@@H]1O[C@H](COc2ccc3ccc(N4CCOCC4)nc3c2)[C@@H](O)[C@H]1O` [I-77]: the IC50 in assay [1] (setting [4]) is over 1000 nM; in assay [2] (setting [5]), 10 to 100 nM; in assay [3] (setting [6]), 100 to 1000 nM.

Take `Nc1ccc2ccc(CC[C@H]3C[C@@H](n4cc([C@H]5CCOC5)c5c(N)ncnc54)[C@H](O)[C@@H]3O)cc2n1` [I-53]: the IC50 in assay [1] (setting [4]) was over 1000 nM; in assay [2] (setting [5]), 100 to 1000 nM; in assay [3] (setting [6]) it was under 10 nM.

For `Nc1ncnc2c1ccn2[C@@H]1C[C@H](CCc2ccc3c(OCC4CC4)ccnc3c2)[C@@H](O)[C@H]1O` [I-85], the IC50 in assay [1] (setting [4]) is over 1000 nM; in assay [2] (setting [5]), over 1000 nM; in assay [3] (setting [6]), under 10 nM.

`Cc1cc2c(NCCc3ccccc3)ncnc2n1[C@@H]1C[C@H](CCc2ccc3ccc(N)nc3c2)[C@@H](O)[C@H]1O` [I-61]: the figures for the IC50 in assay [1] (setting [4]), in assay [2] (setting [5]) and in assay [3] (setting [6]) were over 1000 nM, over 1000 nM and under 10 nM, respectively.

These data come from US20230027361A1, “METTL3 MODULATORS” (priority 2019, published 2023).
